According to patent US9770439B2, “Hepatitis C virus inhibitors” (priority 2013, dated 2017):
pEC50: −log10 of the molar value. Read-outs that look alike come from different tables or passages of the source.

Experiments:
[1] = system: HCV replicon, genotype 1a L31V variant with leucine 31 changed to valine in the NS5A protein; assay type: cell-based; settings: BMS-790052 titrated with N47 fixed at 200 nM, genotype 1a L31V
[2] = system: HCV replicon, genotype 1a Y93H variant with tyrosine 93 changed to histidine in the NS5A protein; assay type: cell-based; settings: BMS-790052 titrated with N47 fixed at 200 nM, genotype 1a Y93H
Description: Combinations can be examined for synergistic activity using a variety of putative NS5A-targeting compounds and a variety of test compounds. […] The test compound can be chosen from compounds exemplified below, which were prepared by methods known in the art, or from others disclosed in the literature.
Similarly, BMS-790052 can be tested singly and in combination with a fixed amount of compound N47 in the HCV replicon cell based assay consisting of the genotype 1a Y93H variant with tyrosine 93 changed to histidine in the NS5A protein.

[3] = system: HCV replicon, genotype-1a variant with glutamine 30 changed to glutamate in the NS5A protein; settings: cited from earlier work; for pEC50: genotype 1a Q30E replicon
[4] = system: HCV replicon, genotype-1a variant with glutamine 30 changed to glutamate in the NS5A protein; assay type: cell-based
Source text: The NS5A synergistic inhibitory effect of test compounds can be determined using various amounts of an NS5A-targeting compound with titration of a second compound of interest. […] In one embodiment, the HCV genotype strain can be genotype 1a containing a change at amino acid 30 of the NS5A protein consisting of glutamine to glutamate. The test compound can be chosen from compounds listed above or from others present in the literature.

[5] = compound alone, read-out: EC50, titrated singly
[6] = ranking of synergist activity, test compound titrated with BMS-790052 fixed at 200 nM, genotype 1a Q30E replicon

## COC(=O)N[C@H](C(=O)N1CCC[C@H]1c1ncc(-c2ccc(-c3ccc(-c4cnc([C@@H]5CCCN5C(=O)[C@@H](NC(=O)OC)C(C)C)[nH]4)cc3)cc2)[nH]1)C(C)C [BMS-790052, reference compound]
[1]
  synergistic inhibitory effect with the combination (fold): > 100 fold
[2]
  synergistic inhibitory effect for the combination (fold): > 100 fold
[3]; BMS-790052 titrated with P-55 fixed at 200 nM, genotype 1a Q30E
  reciprocal synergistic inhibitory effect for the combination (fold): ~100 fold
[3]; P-55 fixed at 200 nM, read-out: EC50 of BMS-790052 in the presence of a fixed amount of P-55
  pEC50: ~8.70
[3]; [5]
  pEC50: ~6.70

## CC(C)CC(=O)N[C@H](c1ncc(-c2ccc(-c3ccc(-c4cnc([C@@H](NC(=O)CC(C)C)C(C)C)[nH]4)cc3)cc2)[nH]1)C(C)C [Compound P-55]
[3]; P-55 titrated with BMS-790052 fixed at 200 nM, genotype 1a Q30E
  synergistic inhibitory effect with the combination (fold): > 100 fold
[3]; BMS-790052 fixed at 200 nM, read-out: EC50 of P-55 in the presence of a fixed amount of BMS-790052
  pEC50: ~8.70
[3]; [5]
  pEC50: < 6.70

## CC(C)(C)C(=O)N[C@H](c1ncc(-c2ccc(-c3ccc(-c4cnc([C@@H](NC(=O)C(C)(C)C)C(C)(C)CF)[nH]4)cc3)cc2)[nH]1)C(C)(C)CF [Compound Y-68]
[4]; [6]
  Fold-Synergistic 1a (Q30E): >100

## CC1([C@H](NC(=O)[C@]2(C)CCCC[C@@H]2O)c2ncc(-c3ccc(-c4ccc(-c5cnc([C@@H](NC(=O)[C@]6(C)CCCC[C@@H]6O)C6(C)CC6)[nH]5)cc4)cc3)[nH]2)CC1 [Compound Y-116]
[4]
  Fold-Synergistic 1a (Q30E): >100

## COC(c1ccccc1)C1(C(=O)N[C@H](c2nc(-c3ccc(-c4ccc(-c5c[nH]c([C@@H](NC(=O)C6(C(OC)c7ccccc7)CC6)C(C)(C)C)n5)cc4)cc3)c[nH]2)C(C)(C)C)CC1 (some centres unmarked) [Example N-137]
[4]; [6]
  Fold-Synergistic 1a (Q30E): <10
